Experimental data published in patent publication US20050159365A1, “Hepatits c virus inhibitor comprising alpha-glycosylceramide as the active ingredient” (Kirin Beer Kabushiki Kaisha, priority 2002, published 2005).
Where two headings read alike, the source gives them in different places.

What was measured:
Assay type in all cases: in vivo
[1] = tested on: NKT cells; assay: NKT cell percentage in the T cells by FACS in HCV-infected chimpanzees
Source text: Chimpanzees are the only test animals that can be persistently infected with hepatitis C viruses. Thus, 2 chimpanzees were selected as test animals for this experiment from the chimpanzee-dedicated facility (Kumamoto Primates Park, Sanwa Kagaku Kenkyusho Colo., Ltd.) where chimpanzees including hepatitis C virus carriers have been artificially bred and propagated over a long period of time. This experiment was examined and approved by the Experiment Review Board in advance in terms of ethics and test contents, and pain inflicted on chimpanzees was eliminated as much as possible during the experiment. […]
(§1) After an acclimation period of approximately 1 month, KRN7000 was intravenously administered two times to animals at the rate of 10 μg/kg at the interval of 28 days (day 0 and day 28). […] The total leukocyte count was measured using an automated blood cell counter Sysmex K4500 (Sysmex Corporation). The leukocyte percentage was determined by coating whole blood onto a fat-free slide glass, immobilizing it thereon, staining with Diff-Quick (International Reagents Corp.), and microscopically examining 200 leukocytes. Neutrophil and lymphocyte counts were calculated by multiplying the obtained values with the total leukocyte count. […]

[2] = Serum KRN7000 levels by LC-MS/MS after intravenous administration to HCV-infected chimpanzees; conditions: for Concentration in blood (serum KRN7000 level): before administration; for concentration at 15 min / concentration at 6 h: chimpanzee, serum, iv, 10 μg/kg, read-out: Concentration in blood (serum KRN7000 level); for concentration at 15 min: 15 minutes later; for concentration at 6 h: 6 hours later
Source text: (§2) Chimpanzees are the only test animals that can be persistently infected with hepatitis C viruses. Thus, 2 chimpanzees were selected as test animals for this experiment from the chimpanzee-dedicated facility (Kumamoto Primates Park, Sanwa Kagaku Kenkyusho Colo., Ltd.) where chimpanzees including hepatitis C virus carriers have been artificially bred and propagated over a long period of time. This experiment was examined and approved by the Experiment Review Board in advance in terms of ethics and test contents, and pain inflicted on chimpanzees was eliminated as much as possible during the experiment. Two chimpanzees employed in the experiment are hereafter referred to as Animal No. C33 (the duration of persistent infection with HCV (1a): 22 years) and Animal No. C54 (the duration of persistent infection with HCV (1b): 20 years), respectively.
After an acclimation period of approximately 1 month, KRN7000 was intravenously administered two times to animals at the rate of 10 μg/kg at the interval of 28 days (day 0 and day 28). In order to obtain samples for verifying the responses of chimpanzees to KRN7000 and efficacy of KRN7000 on chronic HCV infections, blood drawing was carried out before and after each administration. The total leukocyte count was measured using an automated blood cell counter Sysmex K4500 (Sysmex Corporation). The leukocyte percentage was determined by coating whole blood onto a fat-free slide glass, immobilizing it thereon, staining with Diff-Quick (International Reagents Corp.), and microscopically examining 200 leukocytes. Neutrophil and lymphocyte counts were calculated by multiplying the obtained values with the total leukocyte count. The NKT cell percentage in the T cells was determined by: staining the whole blood with an anti-human TCR Vα24 antibody (Beckman Coulter), KRN7000 (α-GalCer)-bound human CD1d tetramer, and an anti-human CD3 antibody (Becton Dickinson Japan) that are labeled with different fluorescent dyes; lysing the stained whole blood with the FACS Lysing Solution (Becton Dickinson Japan); immobilizing thereof; and then determining the NKT cell ratio using the FACSCalibur (Becton Dickinson Japan). Cells that had responded to all of the anti-human TCR Vα24 antibody, the tetramer, and the anti-human CD3 antibody were determined to be the NKT cells of the chimpanzees. The activities of alanine aminotransferase (ALT), aspartate aminotransferase (AST), and lactate dehydrogenase (LDH) in serums were assayed using an automatic analyzer. The serum HCV-RNA levels were assayed by RT-PCR using the AMPLICOR® GT HCV monitor (Roche Diagnostics) and branched DNA (bDNA) probe assay using the Quantiplex HCV-RNA 2 (Bayer Corporation). The serum KRN7000 levels were assayed by liquid chromatography and tandem mass spectrometry (LC-MS/MS).

[3] = tested on: leukocytes; assay: Total leukocyte, neutrophil and lymphocyte counts in blood of HCV-infected chimpanzees; conditions: 10 μg/kg i.v.
Source text: as §2
as §1, with “count. The NKT cell percentage in the T cells was determined by: staining the whole blood with an anti-human TCR Vα24 antibody (Beckman Coulter), KRN7000 (α-GalCer)-bound human CD1d tetramer, and an anti-human CD3 antibody (Becton Dickinson Japan) that are labeled with different fluorescent dyes; lysing the stained whole blood with the FACS Lysing Solution (Becton Dickinson Japan); immobilizing thereof; and then determining the NKT cell ratio using the FACSCalibur (Becton Dickinson Japan).” for “count.”

[4] = Serum ALT, AST and LDH activities in HCV-infected chimpanzees; conditions: both chimpanzees, both stages; peaks 1 day or 3 days after administration, then returned to levels before administration
Source text: as §2
as §1, with “count. The NKT cell percentage in the T cells was determined by: staining the whole blood with an anti-human TCR Vα24 antibody (Beckman Coulter), KRN7000 (α-GalCer)-bound human CD1d tetramer, and an anti-human CD3 antibody (Becton Dickinson Japan) that are labeled with different fluorescent dyes; lysing the stained whole blood with the FACS Lysing Solution (Becton Dickinson Japan); immobilizing thereof; and then determining the NKT cell ratio using the FACSCalibur (Becton Dickinson Japan).” for “count.”

[5] = tested on: hepatitis C virus; assay: Serum HCV-RNA levels (RT-PCR, bDNA probe assay) in chimpanzees persistently infected with hepatitis C virus
Source text: as §2
as §1, with “count. The NKT cell percentage in the T cells was determined by: staining the whole blood with an anti-human TCR Vα24 antibody (Beckman Coulter), KRN7000 (α-GalCer)-bound human CD1d tetramer, and an anti-human CD3 antibody (Becton Dickinson Japan) that are labeled with different fluorescent dyes; lysing the stained whole blood with the FACS Lysing Solution (Becton Dickinson Japan); immobilizing thereof; and then determining the NKT cell ratio using the FACSCalibur (Becton Dickinson Japan).” for “count.”

[6] = Animal C33, first administration (10 μg/kg i.v., day 0)
[7] = Animal C33, second administration (10 μg/kg i.v., day 28)
[8] = Animal C54, first administration (10 μg/kg i.v., day 0)
[9] = Animal C54, second administration (10 μg/kg i.v., day 28)

Concentration in blood (serum KRN7000 level) [2, 6]: <10 ng/mL | Concentration in blood (serum KRN7000 level) [2, 7]: <10 ng/mL | Concentration in blood (serum KRN7000 level) [2, 8]: <10 ng/mL | Concentration in blood (serum KRN7000 level) [2, 9]: <10 ng/mL | Time after administration at which maximum serum levels of KRN7000 were detected ([2]; both chimpanzees, both stages, 10 μg/kg i.v.): 15 min | concentration at 15 min [2, 6]: 89 ng/mL | concentration at 6 h [2, 6]: 38 ng/mL | concentration at 15 min [2, 7]: 97 ng/mL | concentration at 6 h [2, 7]: 58 ng/mL | concentration at 15 min [2, 8]: 129 ng/mL | concentration at 6 h [2, 8]: 42 ng/mL | concentration at 15 min [2, 9]: 141 ng/mL | concentration at 6 h [2, 9]: 77 ng/mL
SMILES: CCCCCCCCCCCCCCCCCCCCCCCCCC(=O)N[C@@H](CO[C@H]1O[C@H](CO)[C@H](O)[C@H](O)[C@H]1O)[C@H](O)[C@H](O)CCCCCCCCCCCCCC [KRN7000, (2S,3S,4R)-1-(α-D-galactopyranosyloxy)-2-hexacosanoylamino-3,4-octadecanediol]
NKT cells, course after disappearance ([1]; Test Animal No. C54, after the administration): gradually showed a tendency to recover | NKT cells (ratio of NKT cell count to T cell count) ([1]; day following both administrations, both chimpanzees, 10 μg/kg i.v.): not detected | Lymphocyte count ([3]; 6 hours after the administration, some exceptions): decreased | Neutrophil count ([3]; both chimpanzees, both stages of administration, 6 hours later): increased | Total leukocyte count ([3]; in many cases, after administration): transiently increased | Serum ALT activity [4]: transiently and mildly elevated | Serum AST activity [4]: transiently and mildly elevated | Serum LDH activity [4]: transiently and mildly elevated | Effect on chimpanzees infected with chronic HCV (overall conclusion) ([5]; 10 μg/kg i.v. two times at interval of 28 days): anti-HCV effects | HCV-RNA levels, second administration (day 28) compared with initial administration (day 0) ([5]; 10 μg/kg i.v., day 0 and day 28): continuously decreased | Serum HCV-RNA levels ([5]; both chimpanzees (HCV 1a, 1b), 1 day or 3 days after administration, both stages, 10 μg/kg i.v., RT-PCR or bDNA): apparent decreases
